Assay results from US9446048B2, “Methods for treating leukemia and disorders mediated by CBFβ and RUNX1 proteins” (The United States of America, as represented by the …, priority 2011, dated 2016).

Tests used:
[1] = target: T1, RUNX1-CBFβ binding (Homo sapiens, UniProt Q01196+Q13951); test: AlphaScreen high-throughput screen for blocking RUNX1-CBFβ interaction; conditions: HTS for RUNX1-CBFβ interaction inhibitors
T1 construct: The full length biotinylated RUNX1, histagged CBFβ and untagged CBFβ proteins were purchased; biotin (biotinylated); purchased Genecopoeia (Germantown, Md.); host or cells: wheat germ extract cell-free protein translation system
Method: An Amplified Luminescence Proximity Homogenous Assay (ALPHA) Screen format (PerkinElmer) was used to develop an assay for identifying compounds that affect RUNX1-CBFβ binding (see FIG. 3) optimized for high throughput screening (HTS). The full length biotinylated RUNX1, histagged CBFβ and untagged CBFβ proteins were purchased from Genecopoeia (Germantown, Md.) that were prepared in a wheat germ extract cell-free protein translation system. All three proteins were purified using an affinity column and FPLC chromatography. The assay buffer was comprised of 25 mM HEPES (pH 7.4), 110 mM KC1, 2 mM MgCl2, 10 mM NaCl, 5 mM DTT, and 0.01% Tween-20. The AlphaScreen assay platform (PerkinElmer) was applied for the measurement of interaction of Runx1 protein with the CBFb protein. The assay was developed in 384-well plate format and optimized in 1536-well plate format for high throughput screening. […] The assay plate was measured in an AlphaScreen mode using an Envision plate reader (Perkin Elmer, Waltham, Mass.). […]
Synthesized, tagged RUNX1 and CBFβ were used in the assay and a total of over 240,000 compounds at 7 concentrations each were screened with this assay. […] Confirmatory ALPHA and HTRF (homogeneous time resolved fluorescence) assays were performed to prioritize compounds for their ability to inhibit RUNX1-CBFβ interaction.

[2] = system: zebrafish embryos; test: Blockage of zebrafish embryonic definitive hematopoiesis (cd41-GFP / lck-GFP transgenic embryos); type: in vivo, zebrafish (Danio rerio); conditions: for numbers of cd41-GFP cells in embryos: FIG. 4C, cd41-GFP transgenic embryos; for definitive hematopoiesis in zebrafish embryos: compounds added to water at 24 hours post fertilization, cd41-GFP or lck-GFP embryos
Method: Candidate compounds were tested in a zebrafish model to determine if they specifically block RUNX1-CBFβ interaction. RUNX1 and CBFβ are required for definitive hematopoiesis during embryogenesis, since RUNX1 and CBFβ knockout mouse embryos are devoid of definitive blood cells. Thus, inhibitors of RUNX1 and CBFβ should also be able to block definitive hematopoiesis as well. Standard protocols were used to breed and raise embryos from the cd41-GFP transgenic fish in which GFP marks hematopoietic stem cells, in addition to thrombocytes during embryogenesis, and from the lck-GFP transgenic fish in which GFP marks the T lineage cells. (See Westerfield M, ed The Zebrafish Book, A guide for the laboratory use of zebrafish (Danio rerio). Edition 3 ed. Eugene, Oreg.: University of Oregon Press; 1995; Lin et al. Analysis of thrombocyte development in CD41-GFP transgenic zebrafish. Blood. Dec. 1, 2005; 106(12):3803-3810; Bertrand et al. CD41+ cmyb+ precursors colonize the zebrafish pronephros by a novel migration route to initiate adult hematopoiesis. Development. May 2008; 135(10):1853-1862; Bertrand et al. Definitive hematopoiesis initiates through a committed erythromyeloid progenitor in the zebrafish embryo. Development. December 2007; 134(23):4147-4156; Kissa et al. Live imaging of emerging hematopoietic stem cells and early thymus colonization. Blood. Feb. 1, 2008; 111(3):1147-1156; Langenau et al. In vivo tracking of T cell development, ablation, and engraftment in transgenic zebrafish. Proc Natl Acad Sci USA. May 11, 2004; 101(19):7369-7374). Compounds were added to the water at 24 hours post fertilization and the final DMSO concentrations were less than 0.1%. The embryos were then observed, photographed, and videotaped with a Leica MZ16F dissecting scope, equipped with a Leica DC500 camera and a BioVision Vision-Mac™ video system. The numbers of GFP+ cells in each embryo were counted manually.

[3] = system: leukemia cells with CBF fusion genes; test: Selective cytotoxicity for CBF leukemia cell lines (ATPlite cellular ATP content); type: cell-based; conditions: 24 hours; for killing of leukemia cells with CBF fusion genes versus without: ATP content
Method: FIG. 5 depicts the results of treating leukemia cells with or without CBF fusion genes with Ro5-3335. […] The cellular ATP content was measured by a luciferase based viability assay with −100% as 100% cell killing.
Cell lines including HeLa, HL-60, Kasumi-1, Kasumi-6, ME-1, RS4 and REH were obtained from American Type Culture Collection (ATCC, Manassas, Va.). Cells in suspension at a density of 100,000 cells/ml were grown in a T175 flask with 20% FBS RPMI-1640 medium except 20% FBS IMDM medium for HL-60 cell line and the medium was renewed every 2-3 days. The cells were centrifuged and resuspended in 10% FBS phenol free OPTI-MEM medium which were seeded at 500 cells/well in 5 uL in 1536-well white solid-bottom plates using a Multidrop Combi dispenser (ThermoFisher Scientific Inc., Waltham, Mass.). The assay plates were incubated at 37° C. with 5% CO2 and 95% humidity for 2 hours prior to compound addition. Subsequently, 23 nL/well compound DMSO solutions or DMSO controls were transferred to the assay plates using a Kalypsys pintool workstation (Kalypsys, San Diego, Calif.). The plates were then incubated at 37° C. with 5% CO2 and 95% humidity for 24 hours followed by an addition of 4 uL/well of ATPlite reagent (PerkinElmer). After a 20 minute incubation, the plates were measured in the luminescence mode using a ViewLux plate reader (Perkinelmer, Waltham, Mass.).

[4] = system: CBF leukemia cells (CBFB-MYH11); test: Leukemia transplantation murine model (Cbfb-MYH11 knock-in leukemia cells); type: in vivo, mouse; conditions: for leukemia burden in mice: 300 mg/kg/day in transgenic dough, similar efficacy as standard chemotherapy drugs; for survival of leukemic mice, combination with cytarabine: 300 mg/kg/p.o. days 10-40 plus cytarabine days 10-15
Method: Compound Ro5-3335 was tested in a CBFβ-MYH11 knock-in mouse model that faithfully models human leukemia with this fusion gene. The mouse model is described in Castilla et al, Failure of embryonic hematopoiesis and lethal hemorrhages in mouse embryos heterozygous for a knocked-in leukemia gene CBFB-MYH11. Cell. 1996; 87(4):687-696; Castilla et al., The fusion gene Cbfb-MYH11 blocks myeloid differentiation and predisposes mice to acute myelomonocytic leukemia. Nat. Genet. October 1999; 23[2]:144-146. The CBFB-MYH11 fusion gene in this mouse model initiates leukemia development with high penetrance but variable latency. However, when the leukemia cells are transplanted, the recipient mice develop leukemia with very short, consistent latency and 100% penetrance.
The B6129F1/J mice were used for injection of leukemia cells developed in the Cbfb-MYH11 knock-in mice. The recipient mice were irradiated at 900 rads before the leukemia cells were given through retro-orbital vein injection, typically at around 250,000-500,000 cells/mouse. Ten days after leukemia cell injection, the mice were given the candidate compounds Ro5-3335 and Ro24-7429 in transgenic dough, at 300 mg/kg/day for up to 30 days. Cytarabine was given for 6 consecutive days starting on day 10 after transplantation, at 100 mg/kg/day IP, and doxorubicin was given for 4 consecutive days starting on day 10 after transplantation, at 3 mg/kg/day IP. The mice were followed by daily inspection and bi-weekly analysis of peripheral blood, which was collected by retro-orbital bleeding. Leukemia cells in the peripheral blood were evaluated by FACS analysis and by blood smear observation. Moribund mice were sacrificed and necropsy conducted to ascertain the diagnosis of terminal leukemia.

[5] = was reported; cited from earlier work

T1 sequence (Q01196 whole entry): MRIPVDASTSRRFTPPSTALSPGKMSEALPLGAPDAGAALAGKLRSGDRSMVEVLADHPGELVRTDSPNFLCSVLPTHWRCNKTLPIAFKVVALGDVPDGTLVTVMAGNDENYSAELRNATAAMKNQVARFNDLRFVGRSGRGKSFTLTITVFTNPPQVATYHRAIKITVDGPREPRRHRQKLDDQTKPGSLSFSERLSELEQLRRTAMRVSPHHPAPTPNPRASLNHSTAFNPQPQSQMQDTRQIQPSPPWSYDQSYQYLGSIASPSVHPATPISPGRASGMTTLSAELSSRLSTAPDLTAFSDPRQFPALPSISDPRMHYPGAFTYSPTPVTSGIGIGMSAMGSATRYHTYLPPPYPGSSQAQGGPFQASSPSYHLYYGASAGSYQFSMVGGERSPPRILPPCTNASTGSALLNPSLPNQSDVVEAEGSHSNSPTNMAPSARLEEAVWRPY
T1 sequence (Q13951 whole entry): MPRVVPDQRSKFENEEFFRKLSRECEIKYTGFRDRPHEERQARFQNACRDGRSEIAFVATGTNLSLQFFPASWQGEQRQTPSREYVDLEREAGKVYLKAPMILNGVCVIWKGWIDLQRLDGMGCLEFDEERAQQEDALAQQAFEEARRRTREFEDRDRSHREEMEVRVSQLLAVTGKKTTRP

SMILES	activity in the original screening [1]	numbers of cd41-GFP cells in embryos [2]	definitive hematopoiesis in zebrafish embryos [2]	definitive hematopoiesis in zebrafish embryos ([2]; listed as J1)	killing of leukemia cells with CBF fusion genes versus without [3]	definitive hematopoiesis in zebrafish embryos ([2]; listed as J2)	cell killing potency for CBF leukemia cell lines relative to leukemia cell lines without CBF fusion genes ([3]; ATP content IC50 comparison)	leukemia burden in mice [4]	survival of leukemic mice, combination with cytarabine [4]	leukemia cell burden (c-kit+ cells) ([4]; FIG. 9, 10 days after treatments started)	definitive hematopoiesis in zebrafish embryos ([2]; listed as J8)	toxicological profile relative to Ro5-3335 [5]	survival of leukemic mice, single agent ([4]; second experiment, cytarabine on days 10-15)
NCC(=O)Nc1ccc(Cl)cc1C(=O)c1ccc[nH]1 [MLS000766105, 2-amino-N-[4-chloro-2-(1H-pyrrole-2-carbonyl)phenyl]acetamide]	active	reduced numbers	significant reduction	reduce definitive hematopoiesis	preferentially killed								
O=C1CN=C(c2ccc[nH]2)c2cc(Cl)ccc2N1 [Ro5-3335, 7-chloro-5-(1H-pyrrol-2-yl)-1,3,-dihydro-1,4-benzodiaepin-2-one]		reduced numbers	significant reduction		preferentially killed	reduce definitive hematopoiesis	6-50 fold	significantly reduced	synergy	reduced leukemia cell burden			
CNC1=Nc2ccc(Cl)cc2C(c2ccc[nH]2)=NC1 [Ro24-7429, 7-chloro-N-methyl-5-1(1H-pyrrol-2-yl)-3H-1,4-benzodiazepin-2-amine]		reduced numbers	significant reduction					significantly reduced	trend of synergy		reduce definitive hematopoiesis	improved toxicological profile	
Nc1ccn([C@@H]2O[C@H](CO)[C@@H](O)[C@@H]2O)c(=O)n1 [cytarabine, reference compound]													failed to extend survival
